Source: article PMC9059126, “Structure-Based Design of a Novel Class of Autotaxin Inhibitors Based on Endogenous Allosteric Modulators” (Journal of Medicinal Chemistry, 2022)

Legend:
ATX [1] = molecular target: T1, ATX (Rattus norvegicus, UniProt Q64610); experiment: Choline oxidase-coupled choline-release assay of LPC hydrolysis by ATX; conditions: for inhibition at 100 µM: read-out: %Inhibition at 100 μM; for IC50 / Residual Activity (%): 20 nM ATX
[2] = tested on: LPA1-HA-expressing HeLa-Flp-In cells; experiment: Confocal microscopy for LPA1 internalization; assay type: cell-based, Human; conditions: 1 μM 18:1 LPC, 20 nM ATX, 15 min
Experimental: Human LPA1 cDNA was amplified by PCR to remove its stop codon and add the restriction sites for BamHI and XhoI, after which it was subcloned in an in-house produced pDNA5.1-HA vector. 0.2 μg of the resulting vector and 1.8 μg of pOG44 Flp-Recombinase Expression Vector (Invitrogen) were incubated with 6 μL of Fugene6 (Invitrogen) in 200 μL of OptiMEM (Gibco) for 30 min, after which the mix was added to previously produced HeLa-Flp-In cells.[43] Their medium was refreshed 24 h later, and selection with 1 μg/mL puromycin was started and maintained with resistant cells.
Serum-starved LPA1-HA-expressing HeLa-Flp-In cells cultured on 24 mm (#1,5) were treated with 1 μM LPC and 20 nM ATX in the presence or absence of 22 or 23 for 15 min in DMEM containing 0.05% fatty acid-free BSA. Subsequently, coverslips were washed and fixed with 4% PFA, permeabilized with 0.1% Triton X-100, and blocked with 2% BSA for 1 h. Incubation with anti-HA antibody (3F10 from Roche Diagnostics; 1:200) was done for 1 h, followed by incubation with donkey anti-rat Alexa Fluor 488-conjugated antibody (A-21208 from Invitrogen; 1:200) for 1 h at room temperature. For confocal microscopy, cells were washed with PBS, mounted with Immnuno-MountTM (Thermo Scientific), visualized on a LEICA TCS-SP5 confocal microscope (63× objective), and analyzed using ImageJ software.

BJeH fibroblasts = experiment: AKT and ERK phosphorylation by western blotting; assay type: cell-based; conditions: Homo sapiens, 0.25 h, 15 min
Experimental: 100,000 BJeH cells were seeded in 12-well tissue culture plates and allowed to grow for 24 h in DMEM (GIBCO, Life Technologies) containing 10% FCS (Thermo Scientific) and 100 U mL^–1 streptomycin/penicillin (GIBCO, Life Technologies). Next, they were washed twice with phosphate-buffered saline (PBS) and serum-starved O/N. ATX 20 nM was incubated with inhibitors for 30 min in a serum-free medium containing 0.05% (w/v) fatty acid-free BSA (total volume 1 mL). The medium from the 12-well plates was removed and replaced with 1 mL of the ATX–inhibitor mixture. Cells were stimulated for 15 min, the medium was removed, and plates were immediately frozen on dry ice and stored at −80 °C. For western blotting, cells were washed with cold PBS; lysed in RIPA buffer; supplemented with protease inhibitors (Pierce), 20 mM NaF and 1 mM orthovanadate; and spun down. The protein concentration was measured using a BCA protein assay kit (Pierce), and LDS sample buffer (NuPAGE, Invitrogen) and 1 mM dithiothreitol were added to the lysate. 20 μg of the total protein was loaded on sodium dodecyl sulfate–polyacrylamide gel electrophoresis pre-cast gradient gels (4–12% Nu-Page Bis-Tris, Invitrogen), followed by transfer to a nitrocellulose membrane. Non-specific protein binding was blocked by 5% BSA in PBS-Tween (0.1%); the primary antibodies were phospho-Akt (Ser473), catalogue number: D93, dilution: 1:1,000; phospho-ERK1/2 (Thr202/Tyr204), catalogue number: D13.14.4E, dilution: 1:2,000, from Cell Signaling Technology. They were incubated O/N at 4 °C in PBS–Tween with 5% BSA, containing 0.1% NaN3. Blots were then incubated for 1 h at room temperature with monoclonal anti-β-actin antibody, clone AC-15, dilution: 1:10,000, from Sigma, which was dissolved in PBS–Tween with 5% skimmed milk containing 0.1% NaN3. HRP-conjugated secondary antibodies [goat anti-mouse (Bio-Rad), catalogue number: 1721011; goat anti-rabbit (Pierce), catalogue number: 1858415] were incubated for 1 h at room temperature in PBS–Tween with 2.5% BSA and developed using an ECL Western blot reagent.

ATX [3] = molecular target: T1, ATX; experiment: Mechanistic studies: mode of inhibition and Ki from LPC titration; assay type: biochemical; set-up: made in house
Experimental: The biochemical studies of ATX lysoPLD activity were performed with ATX. Activity was measured by a coupled reaction with 1 U mL^–1 choline oxidase and 2 U mL^–1 horseradish peroxidase (HRP) and 2 mM homovanillic acid (HVA) (all from Sigma-Aldrich). For the assays, 14:0, 16:0, 18:1, and 20:0 LPC (Avanti Polar Lipids Inc.) were incubated with 20 nM ATX, reaching a final volume of 100 μL of the buffer, which contained 50 mM Tris, 0.01%, 50 mM CaCl2, Triton X-100, pH 7.4. Steady-state choline release was measured at 37 °C by HVA fluorescence at λex/λem = 320/460 nm in Corning 96- or 384-well OptiPlate (Sigma-Aldrich) and with a Pherastar plate reader (BMG Labtech). […] The resulting fluorescence intensity signal over time was used to model all inhibitor concentrations simultaneously using the following formula, where vmax and vmin were fitted for the minimum and maximum relative velocities, respectively, and ci corresponds to the inhibitor concentration for each assay[20] [drawing 1] 1
To statistically determine the chance of each type of inhibition, we calculated the α value in the partial mixed inhibition model (eq 5), where Part defines the partiality of the inhibition, and α > 1 or α = 1 correspond to competitive and non-competitive inhibition modes, respectively. Last, we utilized Akaike’s Information Criterion[42] to assess the significance of the analysis [drawing 5] 5

ATX [4] = molecular target: T1, ATX; experiment: Competition with LPA allostery (LPA-mediated activation of ATX); assay type: biochemical; set-up: made in house; conditions: inhibitor at concentrations close to or lower than IC50; 150 μM 18:1 LPC, 18:1 LPA, 20 nM ATX
Experimental: The activation assays using LPA were performed in a similar way to those done for the inhibitors. In this case, LPA was dissolved in ethanol/H20 (1:1) and 0.01% TX-100 and was added to the reaction buffer. The presence of ethanol was taken into account, and controls in the absence of ATX and/or LPC were employed to correct the kinetic data. ATX was incubated for 30 min with different concentrations of inhibitors and subsequently added to the reaction buffer containing 150 μM 18:1 LPC and different starting concentrations of 18:1 LPA. The slopes were calculated from at least 60 min after the addition of ATX. The percentage of LPA-driven activation was normalized to ATX in the absence of LPA and inhibitors, which represented 100% activity. Last, the activation constant or AC50 was obtained from the following equation [drawing 2] 2

SMILES | IC50 (ATX [1]; LPC hydrolysis assay) [nM] | Residual Activity (%) (ATX [1]; LPC hydrolysis assay) | other results
COc1ccc([B-](F)(F)F)cc1 [Compound 6] |  |  | inhibition at 100 µM (ATX [1]): 57%
COc1ccc(B(O)O)cc1 [Compound 7] |  |  | inhibition at 100 µM (ATX [1]): 37%
C[C@H](CCC(=O)NCCCOc1ccc(S(N)(=O)=O)cc1)[C@H]1CC[C@H]2C3[C@@H](O)C[C@@H]4C[C@H](O)CC[C@]4(C)[C@H]3CC[C@]12C (stereo partly drawn) [Compound 10] | 400 | 75 | 
C[C@H](CCC(=O)NCCOc1ccc(S(N)(=O)=O)cc1)[C@H]1CC[C@H]2C3[C@@H](O)C[C@@H]4C[C@H](O)CC[C@]4(C)[C@H]3CC[C@]12C (stereo partly drawn) [Compound 11] | > 10000 | 31 | 
C[C@H](CCC(=O)NCCCCOc1ccc(S(N)(=O)=O)cc1)[C@H]1CC[C@H]2C3[C@@H](O)C[C@@H]4C[C@H](O)CC[C@]4(C)[C@H]3CC[C@]12C (stereo partly drawn) [Compound 12] | > 10000 | 66 | 
C[C@H](CCC(=O)NCCOc1cccc(B2OC(C)(C)C(C)(C)O2)c1)[C@H]1CC[C@H]2C3[C@@H](O)C[C@@H]4C[C@H](O)CC[C@]4(C)[C@H]3CC[C@]12C (stereo partly drawn) [Compound 13] | 14000 | 14.7 | 
C[C@H](CCC(=O)NCCOc1ccc(B2OC(C)(C)C(C)(C)O2)cc1)[C@H]1CC[C@H]2C3[C@@H](O)C[C@@H]4C[C@H](O)CC[C@]4(C)[C@H]3CC[C@]12C (stereo partly drawn) [Compound 14] | 1500 | 1.4 | fold increase in potency over meta-substituted pinacol boronate 13 (ATX [1]; ethyl-linked, para against meta): 10 fold
C[C@H](CCC(=O)NCCCOc1cccc(B2OC(C)(C)C(C)(C)O2)c1)[C@H]1CC[C@H]2C3[C@@H](O)C[C@@H]4C[C@H](O)CC[C@]4(C)[C@H]3CC[C@]12C (stereo partly drawn) [Compound 15] | 150 | 1.7 | 
C[C@H](CCC(=O)NCCCOc1ccc(B2OC(C)(C)C(C)(C)O2)cc1)[C@H]1CC[C@H]2C3[C@@H](O)C[C@@H]4C[C@H](O)CC[C@]4(C)[C@H]3CC[C@]12C (stereo partly drawn) [Compound 16] | 70 | 0.3 | 
C[C@H](CCC(=O)NCCCOc1ccc([B-](F)(F)F)cc1)[C@H]1CC[C@H]2C3[C@@H](O)C[C@@H]4C[C@H](O)CC[C@]4(C)[C@H]3CC[C@]12C.[Na+] (stereo partly drawn) [Compound 17] | 70 | 1.1 | 
C[C@H](CCC(=O)NCCCOc1ccc(B(O)O)cc1)[C@H]1CC[C@H]2C3[C@@H](O)C[C@@H]4C[C@H](O)CC[C@]4(C)[C@H]3CC[C@]12C (stereo partly drawn) [Compound 18] | 50 | 0.6 | 
C[C@H](CCC(=O)N1CCC(Oc2ccc(B3OC(C)(C)C(C)(C)O3)cc2)CC1)[C@H]1CC[C@H]2C3[C@@H](O)C[C@@H]4C[C@H](O)CC[C@]4(C)[C@H]3CC[C@]12C (stereo partly drawn) [Compound 19] | 80 | 0 | 
C[C@H](CCC(=O)N1CC[C@@H](Oc2ccc(B3OC(C)(C)C(C)(C)O3)cc2)C1)[C@H]1CC[C@H]2C3[C@@H](O)C[C@@H]4C[C@H](O)CC[C@]4(C)[C@H]3CC[C@]12C (stereo partly drawn) [Compound 20] | 210 | 8 | 
C[C@H](CCC(=O)N1CC[C@H](Oc2ccc(B3OC(C)(C)C(C)(C)O3)cc2)C1)[C@H]1CC[C@H]2C3[C@@H](O)C[C@@H]4C[C@H](O)CC[C@]4(C)[C@H]3CC[C@]12C (stereo partly drawn) [Compound 21] | 200 | 10 | 
C[C@H](CCC(=O)N1CCC(Oc2ccc([B-](F)(F)F)cc2)CC1)[C@H]1CC[C@H]2C3[C@@H](O)C[C@@H]4C[C@H](O)CC[C@]4(C)[C@H]3CC[C@]12C.[K+] (stereo partly drawn) [Compound 22] | 50 | 0 | decrease of LPA1 internalization [2]: approximately 75%; EC50 (BJeH fibroblasts; BJeH cells, 20 nM ATX, 1 μM 18:1 LPC, read-out: EC50 (P-AKT and P-ERK levels)): ~100 nM; Emax (BJeH fibroblasts; BJeH, compared to uninhibited ATX incubated with LPC, read-out: reduction of maximal effective cell response (P-AKT and P-ERK)): ~60%; percentage of competitive versus non-competitive inhibition (ATX [3]; Akaike's informative criteria): 99%; mode of inhibition (ATX [3]; LPC hydrolysis): competitive; Ki (ATX [3]; LPC titration at increasing inhibitor concentrations, Michaelis-Menten nonlinear regression): 24 ± 4 nM; α (partial mixed inhibition model) (ATX [3]; α > 1 competitive, α = 1 non-competitive): 9.7; LPA-mediated activation of ATX activity (ATX [4]): dose-dependent decrease; IC50 (ATX [1]; 14:0 LPC, 150 μM LPC): 84 nM; Residual Activity (%) (ATX [1]; 14:0 LPC, 150 μM LPC): 1%; IC50 (ATX [1]; 16:0 LPC, 150 μM LPC): 72 nM; Residual Activity (%) (ATX [1]; 16:0 LPC, 150 μM LPC): 12%; IC50 (ATX [1]; 18:1 LPC, 150 μM LPC): 45 nM; Residual Activity (%) (ATX [1]; 18:1 LPC, 150 μM LPC): 5%; IC50 (ATX [1]; 20:0 LPC, 150 μM LPC): 32 nM; Residual Activity (%) (ATX [1]; 20:0 LPC, 150 μM LPC, % of catalytic rate of inhibitor-free control): 49%
